# Assay results: US7101878B1 (Agouron Pharmaceuticals, Inc., priority 1998, dated 2006)
# “Also recorded” adds a separate entry of the source. Where a SMILES comes first, the peptide text is derived from it. [ ]: non-standard residue; d: D form. The star is where a group is joined. dPhe(4-Cl) = N[C@H](Cc1ccc(Cl)cc1)C(=O)O; d2Nal = N[C@H](Cc1ccc2ccccc2c1)C(=O)O; Lys(iPr) = CC(C)NCCCC[C@H](N)C(=O)O; d3Pal = N[C@H](Cc1cccnc1)C(=O)O; Nicotinoyl = O=C(c1cccnc1)*
# What was measured:
# RARγ Retinoid = RARγ Retinoid (Homo sapiens, UniProt P13631); test: biochemical
# Sequence of RARγ Retinoid (P13631 whole entry): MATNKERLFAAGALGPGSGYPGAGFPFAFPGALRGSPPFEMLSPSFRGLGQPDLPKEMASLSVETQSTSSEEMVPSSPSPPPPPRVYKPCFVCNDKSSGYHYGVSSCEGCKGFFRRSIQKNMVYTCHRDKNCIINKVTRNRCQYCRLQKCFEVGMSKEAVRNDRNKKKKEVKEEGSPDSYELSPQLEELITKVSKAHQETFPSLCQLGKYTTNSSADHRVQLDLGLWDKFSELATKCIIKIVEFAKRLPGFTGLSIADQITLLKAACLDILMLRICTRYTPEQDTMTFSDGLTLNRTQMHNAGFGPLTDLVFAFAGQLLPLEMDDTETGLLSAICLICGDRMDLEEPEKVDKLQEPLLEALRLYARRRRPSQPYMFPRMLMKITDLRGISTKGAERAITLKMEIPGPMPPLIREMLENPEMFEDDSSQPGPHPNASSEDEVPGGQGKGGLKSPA
# M2 Muscarinic = M2 Muscarinic (Homo sapiens, UniProt P08172); test: Selectivity: M2 Muscarinic
# Sequence of M2 Muscarinic (P08172 whole entry): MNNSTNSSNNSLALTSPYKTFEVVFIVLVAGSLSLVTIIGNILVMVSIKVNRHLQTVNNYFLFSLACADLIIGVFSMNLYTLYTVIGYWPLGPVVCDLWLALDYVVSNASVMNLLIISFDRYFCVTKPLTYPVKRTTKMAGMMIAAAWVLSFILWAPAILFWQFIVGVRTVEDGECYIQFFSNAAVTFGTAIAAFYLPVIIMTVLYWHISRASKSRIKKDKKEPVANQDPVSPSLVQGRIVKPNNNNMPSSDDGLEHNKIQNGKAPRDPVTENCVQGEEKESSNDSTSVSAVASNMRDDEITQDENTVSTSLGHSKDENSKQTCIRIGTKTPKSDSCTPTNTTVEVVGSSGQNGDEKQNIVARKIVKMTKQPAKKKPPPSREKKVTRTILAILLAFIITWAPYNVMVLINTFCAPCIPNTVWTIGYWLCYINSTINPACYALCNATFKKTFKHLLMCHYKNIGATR
# PAF = PAF (Homo sapiens, UniProt P25105); test: biochemical
# Sequence of PAF (P25105 whole entry): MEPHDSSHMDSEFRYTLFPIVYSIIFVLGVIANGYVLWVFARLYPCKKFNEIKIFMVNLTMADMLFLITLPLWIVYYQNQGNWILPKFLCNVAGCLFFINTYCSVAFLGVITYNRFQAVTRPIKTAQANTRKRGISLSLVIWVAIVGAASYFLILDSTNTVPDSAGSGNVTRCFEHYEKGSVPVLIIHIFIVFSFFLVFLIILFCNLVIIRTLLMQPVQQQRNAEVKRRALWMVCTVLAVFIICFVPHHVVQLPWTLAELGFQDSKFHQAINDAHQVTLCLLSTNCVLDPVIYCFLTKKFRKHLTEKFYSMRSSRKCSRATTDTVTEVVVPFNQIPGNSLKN
# [1] = molecular target: Choline Acetyltransferase (Homo sapiens, UniProt P28329); test: biochemical
# Sequence of Choline Acetyltransferase (P28329 whole entry): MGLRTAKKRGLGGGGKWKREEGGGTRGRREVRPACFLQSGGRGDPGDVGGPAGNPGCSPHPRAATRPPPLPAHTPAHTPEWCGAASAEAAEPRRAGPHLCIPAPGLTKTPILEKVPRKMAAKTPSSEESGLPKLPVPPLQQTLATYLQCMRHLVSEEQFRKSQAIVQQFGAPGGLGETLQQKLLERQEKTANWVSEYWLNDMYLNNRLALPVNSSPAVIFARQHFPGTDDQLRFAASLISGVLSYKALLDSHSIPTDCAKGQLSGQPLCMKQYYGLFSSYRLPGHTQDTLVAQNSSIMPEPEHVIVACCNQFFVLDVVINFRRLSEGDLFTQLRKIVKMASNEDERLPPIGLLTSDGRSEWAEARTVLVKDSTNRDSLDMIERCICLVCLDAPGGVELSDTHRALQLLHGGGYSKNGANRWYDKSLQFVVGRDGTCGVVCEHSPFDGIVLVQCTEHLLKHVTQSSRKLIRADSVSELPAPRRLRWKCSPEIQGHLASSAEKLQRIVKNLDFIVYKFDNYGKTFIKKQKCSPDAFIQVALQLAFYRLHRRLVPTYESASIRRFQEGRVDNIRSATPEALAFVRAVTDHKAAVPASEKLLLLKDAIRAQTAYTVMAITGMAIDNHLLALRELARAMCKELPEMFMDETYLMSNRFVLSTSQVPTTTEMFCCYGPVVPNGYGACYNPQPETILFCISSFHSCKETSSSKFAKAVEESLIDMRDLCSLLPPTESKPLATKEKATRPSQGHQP
# RXRα Retinoid = RXRα Retinoid (Homo sapiens, UniProt P19793); test: biochemical
# Sequence of RXRα Retinoid (P19793 whole entry): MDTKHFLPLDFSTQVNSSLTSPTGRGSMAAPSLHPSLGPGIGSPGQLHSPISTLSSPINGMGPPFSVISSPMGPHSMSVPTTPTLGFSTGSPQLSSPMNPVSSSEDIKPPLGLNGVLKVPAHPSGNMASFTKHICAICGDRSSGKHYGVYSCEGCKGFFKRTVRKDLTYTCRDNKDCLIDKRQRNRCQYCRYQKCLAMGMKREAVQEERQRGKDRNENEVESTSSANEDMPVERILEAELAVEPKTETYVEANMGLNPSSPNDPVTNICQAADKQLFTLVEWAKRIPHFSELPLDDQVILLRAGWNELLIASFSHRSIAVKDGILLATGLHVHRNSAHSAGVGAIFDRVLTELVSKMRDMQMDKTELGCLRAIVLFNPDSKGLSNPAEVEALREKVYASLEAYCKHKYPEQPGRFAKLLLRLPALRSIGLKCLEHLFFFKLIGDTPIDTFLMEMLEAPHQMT
# H1 Histamine = H1 Histamine (Homo sapiens, UniProt P35367); test: Selectivity: H1 Histamine
# Sequence of H1 Histamine (P35367 whole entry): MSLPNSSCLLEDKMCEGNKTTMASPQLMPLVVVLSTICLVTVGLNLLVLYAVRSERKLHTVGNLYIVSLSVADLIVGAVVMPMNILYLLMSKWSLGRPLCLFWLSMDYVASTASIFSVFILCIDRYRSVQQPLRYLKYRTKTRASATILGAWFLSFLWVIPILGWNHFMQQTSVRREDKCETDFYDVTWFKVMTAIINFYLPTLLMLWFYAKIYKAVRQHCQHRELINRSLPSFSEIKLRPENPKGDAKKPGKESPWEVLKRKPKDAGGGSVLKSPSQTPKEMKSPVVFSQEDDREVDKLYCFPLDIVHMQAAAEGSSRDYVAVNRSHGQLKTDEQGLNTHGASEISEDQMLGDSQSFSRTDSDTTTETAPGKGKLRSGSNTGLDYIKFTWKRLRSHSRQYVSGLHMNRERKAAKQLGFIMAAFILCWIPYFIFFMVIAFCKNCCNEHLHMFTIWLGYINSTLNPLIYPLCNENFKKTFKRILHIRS
# [2] = Intact male rat, testosterone suppression; assay type: in vivo; settings: male, Sprague-Dawley, rat, plasma, intramuscular; 100 mg/kg im*, 7 days; read-out: Range of Plasma Conc.
# Description: (§1) Testosterone is a hormone regulated by the hypothalamic-pituitary-gonadal axis. GnRH is secreted in pulses from the hypothalamus and stimulates the anterior pituitary gland to release gonadotropic hormones LH and FSH. Testosterone is produced when the testes are stimulated by LH. The quantity of testosterone secreted increases approximately in direct proportion to the amount of LH available (Guyton, 1986).
# (§2) Male Sprague-Dawley (250-275 g) rats were single-housed and allowed to acclimate for 1 week prior to study. On study day animals were dosed with vehicle or test compound by various routes of administration, including ip, sc, or po. Blood samples were obtained via cardiac puncture under halothane anesthesia from individual animals at predetermined time points post treatment. Blood samples were drawn into heparin containing tubes. Blood was centrifuged immediately, plasma collected and stored in −20° freezer until assayed. Plasma samples were analyzed using DSL-4000 ACTIVE Testosterone coated-tube raduioimmunoassay kit from Diagnostic Systems Laboratories, Inc.
# (§3) Male Sprague-Dawley (250-275 g) rats were single-housed and allowed to acclimate for 1 week prior to study. We developed a technique to allow for repeated sampling from the jugular vein by using microrenathane (MRE) catheters implanted 7 days prior to study. Details of the surgical procedure have been described previously {Harms and Ojeda, 1974}. On study day, animals were allowed to acclimate to the procedure room while residing in their home cage. Basal blood samples were drawn from all animals. Immediately following basal sampling, vehicle or test compounds were administered by various routes. The routes of administration employed were intravenous (iv), intramuscular (im), and oral (po). Blood samples were drawn into heparin containing tubes at multiple time points post treatment. Blood was centrifuged immediately, plasma collected and stored in −20° freezer until assayed. Plasma samples were analyzed using DSL-4000 ACTIVE Testosterone coated-tube raduioimmunoassay kit from Diagnostic Systems Laboratories, Inc.
# (§4) Male Sprague-Dawley (250-275 g) rats were double-housed and allowed to acclimate for 1 week prior to study. Daily vehicle treatments were administered either, im, sc, or po between 8:00 and 9:00 am for seven days. On day 8 between 8:00 and 9:00 am, blood samples were drawn via cardiac puncture under halothane anesthesia. The procedure was complete in 45-60 seconds. Over the next 7 days one groups of animals continued to receive vehicle treatments while another group of animals received no treatment. Samples were collected as described above following the 7th day of this treatment regimen. Testosterone levels were not different between vehicle treated animals and untreated animals.
# (§5) Daily im dosing of Compound 134 (100 mg/kg) or vehicle was performed between 8:00 and 9:00 am for seven days. Samples were collected as described above following the 7th day of treatment.
# (§6) All blood samples were collected in heparin containing tubes. Blood was centrifuged immediately, plasma collected and stored in −20° freezer until assayed the next day. Plasma samples were analyzed using DSL-4000 ACTIVE Testosterone coated-tube raduioimmunoassay kit from Diagnostic Systems Laboratories, Inc.
# [3] = tested on: testosterone levels in intact male rats; test: Intact male rat, testosterone suppression; assay type: in vivo
# Description: as §1, §2, §3, §4, §5, §6
# [4] = tested on: LH levels in castrated rats; test: Castrated male rat model, LH suppression; assay type: in vivo
# Description: Experimental Protocol: Male Sprague-Dawley (225-250 g) rats were castrated and allowed 10 days postoperative recovery. Ten days post castration animals were instrumented with indwelling femoral venous and arterial catheters to facilitate remote infusions and blood sampling. On the day of the experiment, animals were allowed to acclimate to the procedure room while residing in their home cage. Basal blood samples were drawn from all animals. Following basal sampling, either vehicle (10% DMSO, 10% cremophor/saline), Antide (1.0 μg) or compound 11 (10 mg/kg) was administered intravenously. Blood samples were drawn 10, 60, 90, 120, 180, 240 minutes after injections. Blood was centrifuged, serum collected and stored in −70° freezer until assayed. Serum samples were analyzed using DSL-4600 ACTIVE LH coated-tube immunoradiometric assay kit from Diagnostic Systems Laboratories, Inc.
# Surgical removal of the gonads removes circulating testosterone and eliminates the negative feedback of testosterone on the hypothalamus. […] This model seems suitable for evaluating small molecule GnRH antagonists.
# Male Sprague-Dawley ([…]) rats were castrated via the scrotal approach under halothane anesthesia. Animals were allowed 14 days post operative recovery prior to study. Thirteen days following castration, animals were anesthetized with halothane and instrumented with indwelling jugular vein cannula. Details of the cannulation procedure have been described previously {Harms and Ojeda, 1974)}. On study day, animals were allowed to acclimate to the procedure room while residing in their home cage. Basal blood samples were drawn from all animals. Immediately following basal sampling, vehicle or test compounds were administered by various routes. The routes of administration employed were intravenous (iv), intramuscular (im), intraperitoneal (ip), subcutaneous (sc) and oral (po). Blood samples were drawn into heparin containing tubes at multiple time points post treatment. Blood was centrifuged immediately, plasma collected and stored in −20° freezer until assayed. Plasma samples were analyzed using DSL-4600 ACTIVE LH coated-tube immunoradiometric assay kit from Diagnostic Systems Laboratories, Inc.
# Formulation #1 (denoted with superscript 1): 10% DMSO, 10% Cremophor EL and 80% physiological saline.
# Formulation #2 (denoted with superscript 2): 10% Cremophor EL and 90% physiological saline.
smiles,measurement,setting,value
COc1cccc(OC)c1NC(=O)c1ccc(Cc2cc3c(cc2C)C(C)(C)CCC3(C)C)o1 [Compound 20],Ki,RARγ Retinoid,> 10 µM
same,Ki,M2 Muscarinic,> 1 µM
same,Ki,PAF,3 to 5 µM
same,Ki,[1],> 1 µM
same,Ki,RXRα Retinoid,> 10 µM
same,Ki,H1 Histamine,> 1 µM
COc1cc(OC)c(NC(=O)c2ccc(Cc3cc4c(cc3C)C(C)(C)CCC4(C)C)o2)c(OC)c1 [Compound 134],concentration at 7 days,[2],1300 nM
same,% Testosterone suppression,[3]; 20 mg/kg ip,36%
same,Range of Plasma Conc.,[3]; 20 mg/kg ip,0.2 µM
same,Suppression Duration,[3]; 20 mg/kg ip,4 h
same,time of % Testosterone suppression,[3]; 20 mg/kg ip,4 h
same,Range of Plasma Conc.,"[3]; 20 mg/kg po, @ 1 hr",1.1 @ 1 hr μM
same,Range of Plasma Conc.,"[3]; 20 mg/kg po, @ 2 hr",0.15 @ 2 hr μM
same,Range of Plasma Conc.,"[3]; 20 mg/kg po, @ 4 hr",0.17 @ 4 hr μM
same,% Testosterone suppression,[3]; 50 mg/kg po,75%
same,Suppression Duration,[3]; 50 mg/kg po,8 h
same,time of % Testosterone suppression,[3]; 50 mg/kg po,4 h
same,% Testosterone suppression,"[3]; 100 mg/kg im*, 7 days",80%
same,Suppression Duration,"[3]; 100 mg/kg im*, 7 days",12 h
same,time of % Testosterone suppression,"[3]; 100 mg/kg im*, 7 days",12 h
same,% Testosterone suppression,[3]; 100 mg/kg po,80%
same,Suppression Duration,[3]; 100 mg/kg po,12 h
same,time of % Testosterone suppression,[3]; 100 mg/kg po,6 h
same,% Testosterone suppression,[3]; 100 mg/kg sc,60%
same,Range of Plasma Conc.,[3]; 100 mg/kg sc,0.13 µM
same,Suppression Duration,[3]; 100 mg/kg sc,24 h
same,time of % Testosterone suppression,[3]; 100 mg/kg sc,24 h
same,testosterone levels,"[3]; 7 days of repeated treatment, 100 mg/kg im daily, p<0.05",significantly suppressed testosterone levels
same,testosterone levels,"[3]; oral gavage, highest dose, 12 hour time course and 24 hour time point",suppressed testosterone throughout the course of the study
same,% Max LH Suppression,[4]; 1.0 mg/kg iv,24%
same,time of % Max LH Suppression,[4]; 1.0 mg/kg iv,0.5 h
same,% Max LH Suppression,[4]; 5.0 mg/kg iv,70%
same,time of % Max LH Suppression,[4]; 5.0 mg/kg iv,0.5 h
same,% Max LH Suppression,[4]; 10 mg/kg iv,100%
same,time of % Max LH Suppression,[4]; 10 mg/kg iv,0.5 h
same,≧50% Suppression Duration,[4]; 10 mg/kg iv,2 h
same,% Max LH Suppression,[4]; 20 mg/kg im,73%
same,LH in CX rats,[4]; 20 mg/kg im,suppresses LH
same,time of % Max LH Suppression,[4]; 20 mg/kg im,2 h
same,≧50% Suppression Duration,[4]; 20 mg/kg im,8 h
same,% Max LH Suppression,[4]; 20 mg/kg ip,80%
same,time of % Max LH Suppression,[4]; 20 mg/kg ip,2 h
same,≧50% Suppression Duration,[4]; 20 mg/kg ip,4 h
same,% Max LH Suppression,[4]; 20 mg/kg po,62%
same,time of % Max LH Suppression,[4]; 20 mg/kg po,4 h
same,≧50% Suppression Duration,[4]; 20 mg/kg po,4 h
same,% Max LH Suppression,[4]; 20 mg/kg sc,53%
same,time of % Max LH Suppression,[4]; 20 mg/kg sc,8 h
same,≧50% Suppression Duration,[4]; 20 mg/kg sc,8 h
same,% Max LH Suppression,[4]; 100 mg/kg im,98%
same,time of % Max LH Suppression,[4]; 100 mg/kg im,2 to 24 h
same,≧50% Suppression Duration,[4]; 100 mg/kg im,24 h
same,% Max LH Suppression,[4]; 100 mg/kg ip,98%
same,time of % Max LH Suppression,[4]; 100 mg/kg ip,4 h
same,≧50% Suppression Duration,[4]; 100 mg/kg ip,8 h
same,% Max LH Suppression,[4]; 100 mg/kg po,84%
same,time of % Max LH Suppression,[4]; 100 mg/kg po,4 h
same,≧50% Suppression Duration,[4]; 100 mg/kg po,8 h
same,% Max LH Suppression,[4]; 100 mg/kg sc,80%
same,time of % Max LH Suppression,[4]; 100 mg/kg sc,6 h
same,≧50% Suppression Duration,[4]; 100 mg/kg sc,8 h
same,LH in CX rats,"[4]; 1.0, 5.0 & 10 mg/kg, iv",dose-dependent suppression of LH
same,LH in CX rats,"[4]; 20 or 100 mg/kg, ip",suppresses LH
COc1cc(OC)c(NC(=O)c2ccc(Cc3cc4c(cc3C)CCCC4(C)C)o2)c(OC)c1 [Compound 183],% Max LH Suppression,[4]; 10 mg/kg im,58%
same,time of % Max LH Suppression,[4]; 10 mg/kg im,2 h
same,% Max LH Suppression,[4]; 10 mg/kg iv,92%
same,time of % Max LH Suppression,[4]; 10 mg/kg iv,1 h
same,≧50% Suppression Duration,[4]; 10 mg/kg iv,8 h
same,% Max LH Suppression,[4]; 50 mg/kg po,60%
same,time of % Max LH Suppression,[4]; 50 mg/kg po,2 h
same,≧50% Suppression Duration,[4]; 50 mg/kg po,8 h
"CC(=O)N[C@H](Cc1ccc2ccccc2c1)C(=O)N[C@H](Cc1ccc(Cl)cc1)C(=O)N[C@H](Cc1cccnc1)C(=O)N[C@@H](CO)C(=O)N[C@@H](CCCCNC(=O)c1cccnc1)C(=O)N[C@H](CCCCNC(=O)c1cccnc1)C(=O)N[C@@H](CC(C)C)C(=O)N[C@@H](CCCCNC(C)C)C(=O)N1CCC[C@H]1C(=O)N[C@H](C)C(N)=O [Antide, reference compound] (Ac-[d2Nal][dPhe(4-Cl)][d3Pal]SK(Nicotinoyl)[dK](Nicotinoyl)L[Lys(iPr)]P[dA]-NH2)",LH in CX rats,"[4]; Antide 2.0 and 20 ug, sc",reduces LH levels; also recorded: suppresses LH
same,LH in castrated rat model,"[4]; intravenous, Antide 1.0 μg, compound 11 10 mg/kg",reduces LH
Cc1cc2c(cc1Cc1ccc(C(=O)NCc3nc4ccccc4[nH]3)o1)C(C)(C)CCC2(C)C [Compound 48],% Max LH Suppression,[4]; 10 mg/kg iv,75%
same,time of % Max LH Suppression,[4]; 10 mg/kg iv,0.5 h
same,≧50% Suppression Duration,[4]; 10 mg/kg iv,<1 h
same,% Max LH Suppression,[4]; 20 mg/kg iv,51%
same,time of % Max LH Suppression,[4]; 20 mg/kg iv,1 h
same,≧50% Suppression Duration,[4]; 20 mg/kg iv,1 h
Cc1cc2c(cc1Cc1ccc(C(=O)NCc3cccc(CNc4ccnc(NC[C@@H]5CCCO5)n4)c3)o1)C(C)(C)CCC2(C)C [Compound 136],% Testosterone suppression,[3]; 20 mg/kg ip,72%
same,Range of Plasma Conc.,[3]; 20 mg/kg ip,0.4 µM
same,Suppression Duration,[3]; 20 mg/kg ip,6 h
same,time of % Testosterone suppression,[3]; 20 mg/kg ip,6 h
same,% Testosterone suppression,[3]; 40 mg/kg po,46%
same,Range of Plasma Conc.,[3]; 40 mg/kg po,0.34 µM
same,Suppression Duration,[3]; 40 mg/kg po,4 h
same,time of % Testosterone suppression,[3]; 40 mg/kg po,4 h
same,testosterone levels,"[3]; 6 hours post ip injection, vs vehicle, p<0.05",suppressed testosterone levels
same,% Max LH Suppression,[4]; 5.0 mg/kg iv,48%
same,time of % Max LH Suppression,[4]; 5.0 mg/kg iv,1 h
same,≧50% Suppression Duration,[4]; 5.0 mg/kg iv,1.0 h
same,% Max LH Suppression,[4]; 10 mg/kg iv,74%
same,time of % Max LH Suppression,[4]; 10 mg/kg iv,2 h
same,≧50% Suppression Duration,[4]; 10 mg/kg iv,6 h
same,% Max LH Suppression,[4]; 20 mg/kg iv,98%
same,time of % Max LH Suppression,[4]; 20 mg/kg iv,4 h
same,≧50% Suppression Duration,[4]; 20 mg/kg iv,≧6 hr
same,Range of Plasma Conc.,[4]; 20 mg/kg po,0.29 µM
same,Range of Plasma Conc.,[4]; 40 mg/kg po,0.72 µM
